In patent US20240285571A1, “METHODS OF TREATING BONE INFECTIONS” (MICROBION CORPORATION, priority 2020, published 2024):
Converted amounts (≈) assume the structure as drawn. Where two headings read alike, the source gives them in different places.

Experiments:
Format in all cases: cell-based
[1] = tested on: Acinetobacter baumannii; assay: Broth microdilution MIC (Example 6); conditions: Acinetobacter baumannii
Summary of the method: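 CLSI broth microdilution in cation-adjusted Mueller Hinton broth, test agents 0.06-64 μg/mL from DMSO stocks, inoculum approx. 5×10^5 CFU/mL. Incubation 35° C for 16–20 hr; MIC taken as lowest concentration inhibiting visible growth.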

[2] = tested on: relevant ATCC QC organisms; assay: Broth microdilution MIC, QC (Example 6)
Summary of the method: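 QC strains were tested per CLSI broth microdilution in cation-adjusted Mueller Hinton broth, with Ca2+ supplemented for daptomycin, at about 5×10^5 CFU/mL. Incubation was at 35° C for 16–20 hr, or 24 hr for vancomycin against S. aureus. The MIC was the lowest concentration inhibiting visible growth.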

[3] = tested on: Escherichia coli; assay: Broth microdilution MIC (Example 6); conditions: Escherichia coli
Summary of the method: (§1)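 Activity was measured by CLSI broth microdilution using 2-fold serial dilutions and an inoculum of about 5×10^5 CFU/mL. Plates were incubated at 35 °C for 16 to 20 hr. The MIC is the lowest drug concentration that prevented visible growth.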

[4] = tested on: Pseudomonas aeruginosa; assay: Broth microdilution MIC (Example 6); conditions: Pseudomonas aeruginosa
Summary of the method: as §1

[5] = tested on: Klebsiella pneumoniae; assay: Broth microdilution MIC (Example 6); conditions: Klebsiella pneumoniae
Summary of the method: as §1

[6] = ATCC35218, E. coli ATCC 35218, ESBL, read-out: MIC
[7] = E. coli MMX 5755, ESBL, read-out: MIC
[8] = E. coli MMX 5756, ESBL, read-out: MIC
[9] = E. coli MMX 5758, ESBL, read-out: MIC
[10] = P. aeruginosa isolate CDC 230, β-lactamase type VIM/OXA, read-out: MIC
[11] = P. aeruginosa isolate CDC 241, β-lactamase type IMP/OXA, read-out: MIC
[12] = P. aeruginosa isolate CDC 439, β-lactamase type IMP, read-out: MIC
[13] = P. aeruginosa isolate CDC 444, β-lactamase type VIM, read-out: MIC
[14] = P. aeruginosa isolate CDC 457, β-lactamase type VIM, read-out: MIC
[15] = K. pneumoniae CDC 135, ESBL/VIM, read-out: MIC
[16] = K. pneumoniae MMX 9029, ESBL, read-out: MIC

## OCC(S)CS.[Bi] (stereo not shown) [MB-2B, bismuth-2,3-dimercaptopropanol]
[1]; A. baumannii isolate CDC 273, β-lactamase type ESBL/OXA
  MIC: 32 µg/mL
[1]; A. baumannii isolate CDC 274, β-lactamase type ESBL/OXA
  MIC: 32 µg/mL
[1]; A. baumannii isolate CDC 275, β-lactamase type ESBL/OXA
  MIC: 32 µg/mL
[1]; A. baumannii isolate CDC 277, β-lactamase type ESBL/OXA
  MIC: > 16 µg/mL
[1]; A. baumannii isolate CDC 284, β-lactamase type ESBL/OXA
  MIC: > 16 µg/mL
[1]; A. baumannii isolate CDC 307, β-lactamase type OXA
  MIC: 32 µg/mL
[1]; A. baumannii isolate CDC 308, β-lactamase type ESBL/OXA
  MIC: 32 µg/mL
[1]; A. baumannii isolate CDC 311, β-lactamase type OXA
  MIC: 32 µg/mL
[1]; A. baumannii isolate CDC 312, β-lactamase type OXA
  MIC: 32 µg/mL
[1]; A. baumannii isolate CDC 313, β-lactamase type ESBL/OXA
  MIC: 32 µg/mL
[1]; NCTC13304, A. baumannii isolate NCTC 13304, β-lactamase type OXA
  MIC: > 16 µg/mL
[2]; Escherichia coli, ATCC25922
  MIC: 2 µg/mL
[2]; Escherichia coli, ATCC35218
  MIC: 2 µg/mL
[2]; Klebsiella pneumoniae, ATCCBAA1705
  MIC: 4 µg/mL
[2]; Pseudomonas aeruginosa, ATCC27853
  MIC: 2 µg/mL
[2]; Staphylococcus aureus, ATCC29213
  MIC: 1 µg/mL
[3]; [6]
  MIC: 2 µg/mL
[3]; ATCCBAA2471, E. coli ATCC BAA-2471, NDM
  MIC: 2 µg/mL
[3]; E. coli CDC 114, ESBL/KPC
  MIC: 2 µg/mL
[3]; E. coli CDC 118, ESBL/NDM
  MIC: 4 µg/mL
[3]; E. coli CDC 435, NDM
  MIC: 2 µg/mL
[3]; E. coli CDC 451, KPC
  MIC: 2 µg/mL
[3]; E. coli CDC 503, ESBL/NDM
  MIC: 2 µg/mL
[3]; E. coli MMX 5745, KPC
  MIC: 4 µg/mL
[3]; [7]
  MIC: 4 µg/mL
[3]; [8]
  MIC: 2 µg/mL
[3]; [9]
  MIC: 4 µg/mL
[4]; [10]
  MIC: 4 µg/mL
[4]; P. aeruginosa isolate CDC 231, β-lactamase type KPC/OXA
  MIC: 16 µg/mL
[4]; [11]
  MIC: 32 µg/mL
[4]; P. aeruginosa isolate CDC 246, β-lactamase type NDM/OXA
  MIC: 8 µg/mL
[4]; P. aeruginosa isolate CDC 250, β-lactamase type NDM/OXA
  MIC: 8 µg/mL
[4]; P. aeruginosa isolate CDC 356, β-lactamase type KPC
  MIC: 4 µg/mL
[4]; [12]
  MIC: 4 µg/mL
[4]; [13]
  MIC: 4 µg/mL
[4]; [14]
  MIC: 32 µg/mL
[4]; P. aeruginosa isolate CDC 516, β-lactamase type KPC/AmpC
  MIC: 4 µg/mL
[4]; P. aeruginosa isolate CDC 518, β-lactamase type KPC/AmpC
  MIC: 4 µg/mL
[5]; ATCCBAA1705, K. pneumoniae ATCC BAA-1705, ESBL/KPC
  MIC: 4 µg/mL
[5]; K. pneumoniae CDC 112, KPC
  MIC: 4 µg/mL
[5]; K. pneumoniae CDC 113, ESBL/KPC
  MIC: 32 µg/mL
[5]; K. pneumoniae CDC 115, ESBL/KPC
  MIC: 16 µg/mL
[5]; K. pneumoniae CDC 120, ESBL/KPC
  MIC: 4 µg/mL
[5]; K. pneumoniae CDC 126, ESBL/KPC
  MIC: 32 µg/mL
[5]; K. pneumoniae CDC 129, ESBL/KPC
  MIC: 4 µg/mL
[5]; [15]
  MIC: 8 µg/mL
[5]; K. pneumoniae CDC 138, ESBL/NDM
  MIC: 16 µg/mL
[5]; K. pneumoniae CDC 158, ESBL/NDM/OXA
  MIC: 4 µg/mL
[5]; [16]
  MIC: 2 µg/mL

## C[C@@H](O)[C@H]1C(=O)N2C(C(=O)O)=C(S[C@@H]3CN[C@H](C(=O)N(C)C)C3)[C@H](C)[C@H]12 [Meropenem]
[1]; A. baumannii isolate CDC 273, β-lactamase type ESBL/OXA, read-out: MIC
  MIC: > 8 µg/mL
[1]; A. baumannii isolate CDC 274, β-lactamase type ESBL/OXA, read-out: MIC
  MIC: > 8 µg/mL
[1]; A. baumannii isolate CDC 275, β-lactamase type ESBL/OXA, read-out: MIC
  MIC: > 8 µg/mL
[1]; A. baumannii isolate CDC 277, β-lactamase type ESBL/OXA, read-out: MIC
  MIC: > 8 µg/mL
[1]; A. baumannii isolate CDC 284, β-lactamase type ESBL/OXA, read-out: MIC
  MIC: > 8 µg/mL
[1]; A. baumannii isolate CDC 307, β-lactamase type OXA, read-out: MIC
  MIC: 8 µg/mL
[1]; A. baumannii isolate CDC 308, β-lactamase type ESBL/OXA, read-out: MIC
  MIC: 8 µg/mL
[1]; A. baumannii isolate CDC 311, β-lactamase type OXA, read-out: MIC
  MIC: > 8 µg/mL
[1]; A. baumannii isolate CDC 312, β-lactamase type OXA, read-out: MIC
  MIC: 4 µg/mL
[1]; A. baumannii isolate CDC 313, β-lactamase type ESBL/OXA, read-out: MIC
  MIC: > 8 µg/mL
[1]; NCTC13304, A. baumannii isolate NCTC 13304, β-lactamase type OXA, read-out: MIC
  MIC: > 8 µg/mL
[2]; Escherichia coli, ATCC25922, E. coli ATCC 25922, read-out: MIC
  MIC: ≤ 0.008 µg/mL
[2]; Escherichia coli, ATCC35218, E. coli ATCC 35218, read-out: MIC
  MIC: ≤ 0.008 µg/mL
[2]; Klebsiella pneumoniae, ATCCBAA1705, K. pneumoniae ATCC BAA-1705, read-out: MIC
  MIC: 8 µg/mL
[2]; Pseudomonas aeruginosa, ATCC27853, P. aeruginosa ATCC 27853, read-out: MIC
  MIC: 0.25 µg/mL
[3]; [6]
  MIC: ≤ 0.008 µg/mL
[3]; ATCCBAA2471, E. coli ATCC BAA-2471, NDM, read-out: MIC
  MIC: > 8 µg/mL
[3]; E. coli CDC 114, ESBL/KPC, read-out: MIC
  MIC: 2 µg/mL (≈ 5.22 µM)
[3]; E. coli CDC 118, ESBL/NDM, read-out: MIC
  MIC: 0.06 µg/mL (≈ 0.156 µM)
[3]; E. coli CDC 435, NDM, read-out: MIC
  MIC: > 8 µg/mL
[3]; E. coli CDC 451, KPC, read-out: MIC
  MIC: 1 µg/mL (≈ 2.61 µM)
[3]; E. coli CDC 503, ESBL/NDM, read-out: MIC
  MIC: 8 µg/mL (≈ 20.9 µM)
[3]; E. coli MMX 5745, KPC, read-out: MIC
  MIC: 2 µg/mL (≈ 5.22 µM)
[3]; [7]
  MIC: 0.015 µg/mL (≈ 0.0391 µM)
[3]; [8]
  MIC: ≤ 0.008 µg/mL
[3]; [9]
  MIC: ≤ 0.008 µg/mL
[4]; [10]
  MIC: > 8 µg/mL
[4]; P. aeruginosa isolate CDC 231, β-lactamase type KPC/OXA, read-out: MIC
  MIC: > 8 µg/mL
[4]; [11]
  MIC: > 8 µg/mL
[4]; P. aeruginosa isolate CDC 246, β-lactamase type NDM/OXA, read-out: MIC
  MIC: > 8 µg/mL
[4]; P. aeruginosa isolate CDC 250, β-lactamase type NDM/OXA, read-out: MIC
  MIC: > 8 µg/mL
[4]; P. aeruginosa isolate CDC 356, β-lactamase type KPC, read-out: MIC
  MIC: > 8 µg/mL
[4]; [12]
  MIC: > 8 µg/mL
[4]; [13]
  MIC: > 8 µg/mL
[4]; [14]
  MIC: > 8 µg/mL
[4]; P. aeruginosa isolate CDC 516, β-lactamase type KPC/AmpC, read-out: MIC
  MIC: > 8 µg/mL
[4]; P. aeruginosa isolate CDC 518, β-lactamase type KPC/AmpC, read-out: MIC
  MIC: > 8 µg/mL
[5]; ATCCBAA1705, K. pneumoniae ATCC BAA-1705, ESBL/KPC, read-out: MIC
  MIC: 8 µg/mL (≈ 20.9 µM)
[5]; K. pneumoniae CDC 112, KPC, read-out: MIC
  MIC: > 8 µg/mL
[5]; K. pneumoniae CDC 113, ESBL/KPC, read-out: MIC
  MIC: > 8 µg/mL
[5]; K. pneumoniae CDC 115, ESBL/KPC, read-out: MIC
  MIC: > 8 µg/mL
[5]; K. pneumoniae CDC 120, ESBL/KPC, read-out: MIC
  MIC: > 8 µg/mL
[5]; K. pneumoniae CDC 126, ESBL/KPC, read-out: MIC
  MIC: 4 µg/mL (≈ 10.4 µM)
[5]; K. pneumoniae CDC 129, ESBL/KPC, read-out: MIC
  MIC: 8 µg/mL (≈ 20.9 µM)
[5]; [15]
  MIC: 1 µg/mL (≈ 2.61 µM)
[5]; K. pneumoniae CDC 138, ESBL/NDM, read-out: MIC
  MIC: > 8 µg/mL
[5]; K. pneumoniae CDC 158, ESBL/NDM/OXA, read-out: MIC
  MIC: > 8 µg/mL
[5]; [16]
  MIC: 0.015 µg/mL (≈ 0.0391 µM)
